Columns and labels:
[1] = Heating of form A: variable temperature powder X-ray diffraction (VT-PXRD) and TGA; assay type: physicochemical
[2] = Dehydration/desolvation temperatures determined by DSC; assay type: physicochemical; details: DSC analysis at 5° C./min from 30-300° C.
Description: Dehydration/desolvation temperatures were determined by DSC with a heating rate of 5° C./min.

## CCC1OC(=O)C(C)C(O[C@H]2C[C@@](C)(OC)[C@@H](O)C(C)O2)C(C)[C@@H](OC2OC(C)CC(N(C)C)[C@H]2O)C(C)(O)C[C@@H](C)CN(C)[C@H](C)[C@@H](O)[C@]1(C)O (stereo in doubt) [Form L]
[1]; cooled to ambient temperature after heating form A to about 90° C.
  stability of form when cooled to ambient temperature: rapidly reverts to form A

## CC[C@H]1OC(=O)[C@H](C)[C@@H](O[C@H]2C[C@@](C)(OC)[C@@H](O)[C@H](C)O2)[C@H](C)[C@@H](O[C@@H]2O[C@H](C)C[C@H](N(C)C)[C@H]2O)[C@](C)(O)C[C@@H](C)CN(C)[C@H](C)[C@@H](O)[C@]1(C)O [Form A, azithromycin dihydrate]
[1]; at 90° C.
  weight loss by TGA: about 2.5 weight %
[1]; heating, VT-PXRD
  temperature of solid-state conversion of form A to form L: about 90 °C

## CCC1OC(=O)C(C)C(O[C@H]2C[C@@](C)(OC)[C@@H](O)C(C)O2)C(C)[C@@H](OC2OC(C)CC(N(C)C)[C@H]2O)[C@@](C)(O)C[C@@H](C)CN(C)[C@H](C)[C@@H](O)[C@]1(C)O (stereo partly shown) [Form D, azithromycin monohydrate monocyclohexane solvate]
[2]
  broad endotherm (decomposition): 200-280 °C

Source: patent US7282486B2, “Crystal forms of azithromycin” (Pfizer Inc, priority 2001, dated 2007)
